# Assay results taken from ChEMBL document CHEMBL6177998, “Rational Design of Dual Degraders by Incorporating Molecular Glue Structural Features into PROTAC Degraders” (J Med Chem, 2025).
# Activity calls are given as the source filed them. The rule behind the calls is not given here.
# Tests used:
# [1] = molecular target: T1, Protein cereblon/Androgen receptor (Homo sapiens, UniProt P10275+Q96SW2); test: PROTAC activity at CRBN/AR in human 22Rv1 cells assessed as induction of AR degradation at 20 nM incubated for 24 hrs by Western blot analysis (reference value: 0 %); format: cell-based
# Target sequence in this assay (P10275 whole entry, looked up): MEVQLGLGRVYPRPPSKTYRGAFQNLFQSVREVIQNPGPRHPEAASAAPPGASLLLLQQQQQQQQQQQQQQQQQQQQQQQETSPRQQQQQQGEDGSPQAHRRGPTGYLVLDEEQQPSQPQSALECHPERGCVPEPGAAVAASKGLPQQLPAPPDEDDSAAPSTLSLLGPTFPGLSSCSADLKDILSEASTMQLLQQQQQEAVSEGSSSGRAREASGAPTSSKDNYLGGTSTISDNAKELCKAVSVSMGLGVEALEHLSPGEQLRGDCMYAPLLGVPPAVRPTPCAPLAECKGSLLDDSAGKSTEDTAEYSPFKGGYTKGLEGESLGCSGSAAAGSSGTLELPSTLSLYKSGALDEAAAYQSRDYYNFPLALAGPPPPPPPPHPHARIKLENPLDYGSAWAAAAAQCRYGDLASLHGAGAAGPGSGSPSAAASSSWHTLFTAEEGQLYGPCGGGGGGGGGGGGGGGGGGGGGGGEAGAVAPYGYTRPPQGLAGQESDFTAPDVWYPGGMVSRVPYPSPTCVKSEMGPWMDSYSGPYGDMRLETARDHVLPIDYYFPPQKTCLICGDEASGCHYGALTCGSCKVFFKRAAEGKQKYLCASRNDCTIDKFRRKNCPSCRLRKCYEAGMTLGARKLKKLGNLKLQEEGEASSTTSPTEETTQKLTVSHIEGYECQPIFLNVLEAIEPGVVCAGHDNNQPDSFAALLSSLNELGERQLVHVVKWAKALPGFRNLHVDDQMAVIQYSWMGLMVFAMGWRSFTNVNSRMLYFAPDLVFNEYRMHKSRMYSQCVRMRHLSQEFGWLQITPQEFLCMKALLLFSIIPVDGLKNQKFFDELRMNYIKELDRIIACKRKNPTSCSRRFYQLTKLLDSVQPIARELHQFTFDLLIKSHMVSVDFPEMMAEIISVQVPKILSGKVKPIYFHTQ
# Target sequence in this assay (Q96SW2 whole entry, looked up): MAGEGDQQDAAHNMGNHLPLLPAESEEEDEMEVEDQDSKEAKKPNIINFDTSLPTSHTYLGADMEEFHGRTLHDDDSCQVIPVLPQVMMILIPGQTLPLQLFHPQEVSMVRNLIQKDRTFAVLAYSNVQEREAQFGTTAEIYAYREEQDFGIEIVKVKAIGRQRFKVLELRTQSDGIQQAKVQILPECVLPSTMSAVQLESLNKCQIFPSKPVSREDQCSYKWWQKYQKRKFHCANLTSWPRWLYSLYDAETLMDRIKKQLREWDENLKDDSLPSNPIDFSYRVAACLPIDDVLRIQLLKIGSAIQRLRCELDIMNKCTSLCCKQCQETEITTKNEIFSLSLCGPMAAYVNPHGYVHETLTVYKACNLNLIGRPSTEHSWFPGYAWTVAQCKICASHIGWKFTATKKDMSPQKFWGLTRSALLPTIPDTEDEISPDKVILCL
# [2] = molecular target: T2, Protein cereblon/Eukaryotic peptide chain release factor GTP-binding subunit ERF3A (Homo sapiens, UniProt Q96SW2+P15170); test: Molecular glue activity at CRBN/GSPT1 in human 22Rv1 cells assessed as induction of GSPT1 degradation at 50 uM preincubated with thalidomide followed by compound addition and measured after 12 hrs by Western blot analysis; format: cell-based
# T2 sequence (P15170 whole entry, looked up): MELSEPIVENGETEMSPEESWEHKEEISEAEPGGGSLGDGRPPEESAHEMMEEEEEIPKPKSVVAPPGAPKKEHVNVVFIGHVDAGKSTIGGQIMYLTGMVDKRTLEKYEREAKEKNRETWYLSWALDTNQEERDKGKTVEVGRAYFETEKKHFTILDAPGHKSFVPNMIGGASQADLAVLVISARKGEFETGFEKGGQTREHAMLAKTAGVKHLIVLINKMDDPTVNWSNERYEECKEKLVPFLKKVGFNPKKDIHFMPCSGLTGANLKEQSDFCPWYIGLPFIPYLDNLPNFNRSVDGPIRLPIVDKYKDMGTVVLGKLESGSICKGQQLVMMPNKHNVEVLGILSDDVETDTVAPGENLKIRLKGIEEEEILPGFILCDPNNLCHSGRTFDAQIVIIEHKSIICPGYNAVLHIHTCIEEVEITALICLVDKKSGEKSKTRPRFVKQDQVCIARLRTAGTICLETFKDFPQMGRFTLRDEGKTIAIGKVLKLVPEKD
# T2 sequence (Q96SW2 whole entry, looked up): as the sequence (Q96SW2 whole entry, looked up) above
# [3] = molecular target: T1, Protein cereblon/Androgen receptor; test: PROTAC activity at CRBN/AR in human 22Rv1 cells assessed as decrease in TMPRSS2 protein level incubated for 24 hrs by Western blot analysis; format: cell-based; conditions: dose 1-10 nM
# Target sequence in this assay (P10275 whole entry, looked up): as the sequence (P10275 whole entry, looked up) above
# Target sequence in this assay (Q96SW2 whole entry, looked up): as the sequence (Q96SW2 whole entry, looked up) above
# [4] = molecular target: T1, Protein cereblon/Androgen receptor; test: PROTAC activity at CRBN/AR in human 22Rv1 cells assessed as induction of AR degradation at 20 nM incubated for 36 hrs by Western blot analysis (reference value: 0 %); format: cell-based
# Target sequence in this assay (P10275 whole entry, looked up): as the sequence (P10275 whole entry, looked up) above
# Target sequence in this assay (Q96SW2 whole entry, looked up): as the sequence (Q96SW2 whole entry, looked up) above
# [5] = molecular target: T1, Protein cereblon/Androgen receptor; test: PROTAC activity at CRBN/AR in human LNCaP cells assessed as decrease in PSA mRNA level at 10 to 100 nM incubated for 24 hrs by qRT-PCR analysis; format: cell-based; conditions: dose 10-100 nM
# Target sequence in this assay (P10275 whole entry, looked up): as the sequence (P10275 whole entry, looked up) above
# Target sequence in this assay (Q96SW2 whole entry, looked up): as the sequence (Q96SW2 whole entry, looked up) above
# [6] = molecular target: T1, Protein cereblon/Androgen receptor; test: PROTAC activity at CRBN/AR in human Enzalutamide-resistant LNCaP cells assessed as induction of androgen receptor degradation at 1 to 300 nM by Western blot analysis; format: cell-based; conditions: dose 1-300 nM
# Target sequence in this assay (P10275 whole entry, looked up): as the sequence (P10275 whole entry, looked up) above
# Target sequence in this assay (Q96SW2 whole entry, looked up): as the sequence (Q96SW2 whole entry, looked up) above
# [7] = molecular target: T2, Protein cereblon/Eukaryotic peptide chain release factor GTP-binding subunit ERF3A; test: Molecular glue activity at CRBN/GSPT1 in human 22Rv1 cells assessed as induction of GSPT1 degradation at 20 nM incubated for 6 hrs by Western blot analysis (reference value: 0 %); format: cell-based
# [8] = molecular target: T1, Protein cereblon/Androgen receptor; test: PROTAC activity at CRBN/AR in human 22Rv1 cells assessed as induction of AR degradation at 50 nM preincubated with MLN4924 followed by compound addition and measured after 12 hrs by Western blot analysis; format: cell-based
# Target sequence in this assay (P10275 whole entry, looked up): as the sequence (P10275 whole entry, looked up) above
# Target sequence in this assay (Q96SW2 whole entry, looked up): as the sequence (Q96SW2 whole entry, looked up) above
# [9] = molecular target: T2, Protein cereblon/Eukaryotic peptide chain release factor GTP-binding subunit ERF3A; test: Molecular glue activity at CRBN/GSPT1 in human LNCaP cells assessed as induction of GSPT1 degradation by measuring maximal efficacy incubated for 24 hrs by Western blot analysis relative to control; format: cell-based
# [10] = test system: Protein cereblon/Androgen receptor (Homo sapiens), P10275+Q96SW2 [UNDEFINED MUTATION]; test: PROTAC activity at CRBN/Androgen receptor splice variant 7 in human 22Rv1 cells assessed as induction of AR-V7 degradation at 0.1 uM incubated for 24 hrs by Western blot analysis relative to control; format: cell-based
# Chain of Protein cereblon/Androgen receptor (Homo sapiens), P10275+Q96SW2 [UNDEFINED MUTATION] (P10275 whole entry, looked up, stated change not applied, canonical isoform): as the sequence (P10275 whole entry, looked up) above
# Chain of Protein cereblon/Androgen receptor (Homo sapiens), P10275+Q96SW2 [UNDEFINED MUTATION] (Q96SW2 whole entry, looked up, stated change not applied, canonical isoform): as the sequence (Q96SW2 whole entry, looked up) above
# [11] = molecular target: T2, Protein cereblon/Eukaryotic peptide chain release factor GTP-binding subunit ERF3A; test: Molecular glue activity at CRBN/GSPT1 in human 22Rv1 cells assessed as induction of GSPT1 degradation at 0.01 uM incubated for 6 hrs by Western blot analysis; format: cell-based
# [12] = Selectivity ratio of IC50 for antiproliferative activity against AR-independent human DU-145 cells assessed as cell growth inhibition to IC50 for antiproliferative activity against AR-dependent human 22Rv1 cells assessed as cell growth inhibition; format: functional
# [13] = molecular target: T1, Protein cereblon/Androgen receptor; test: PROTAC activity at CRBN/AR in human 22Rv1 cells assessed as induction of AR degradation incubated for 24 hrs by Western blot analysis; format: cell-based
# [14] = test system: CWR22R; test: Cell cycle arrest in human 22Rv1 cells assessed as accumulation of cells at G1 phase at 10 nM incubated for 24 hrs by flow cytometric analysis (reference value: 49.7 %); format: functional
# [15] = molecular target: T1, Protein cereblon/Androgen receptor; test: PROTAC activity at CRBN/AR in human 22Rv1 cells assessed as induction of AR degradation at 20 nM incubated for 2 hrs by Western blot analysis (reference value: 0 %); format: cell-based
# [16] = molecular target: T1, Protein cereblon/Androgen receptor; test: PROTAC activity at CRBN/AR in human VCaP cells assessed as induction of AR degradation by measuring maximal efficacy incubated for 24 hrs by Western blot analysis relative to control; format: cell-based
# [17] = Inhibition of AR W741L mutant (unknown origin) transcriptional activity transfected in HEK293T cells co-transfected with PSA-luciferase reporter and pRL-TK assessed as reduction in PSA-luciferase activity incubated for 24 hrs by luminescence based microplate reader analysis; format: cell-based, Homo sapiens
# [18] = molecular target: T1, Protein cereblon/Androgen receptor; test: PROTAC activity at CRBN/AR in human 22Rv1 cells assessed as induction of AR degradation at 0.01 uM incubated for 24 hrs by Western blot analysis relative to control; format: cell-based
# [19] = molecular target: T1, Protein cereblon/Androgen receptor; test: PROTAC activity at CRBN/AR in human LNCaP cells assessed as decrease in FKBP5 mRNA level at 10 to 100 nM incubated for 24 hrs by qRT-PCR analysis; format: cell-based; conditions: dose 10-100 nM
# [20] = molecular target: T1, Protein cereblon/Androgen receptor; test: PROTAC activity at CRBN/AR in human 22Rv1 cells assessed as induction of AR degradation by measuring maximal efficacy incubated for 24 hrs by Western blot analysis relative to control; format: cell-based
# [21] = test system: CWR22R; test: Cell cycle arrest in human 22Rv1 cells assessed as accumulation of cells at G1 phase at 3 nM incubated for 24 hrs by flow cytometric analysis (reference value: 49.7 %); format: functional
# [22] = test system: 22Rv1; test: Induction of GSPT1 degradation in human 22Rv1 cells transfected with CRBN siRNA at 30 nM incubated for 24 hrs by Western blot analysis; format: cell-based
# [23] = test system: Protein cereblon/Androgen receptor (Homo sapiens), P10275+Q96SW2 [UNDEFINED MUTATION]; test: PROTAC activity at CRBN/Androgen receptor splice variant 7 in human 22Rv1 cells assessed as induction of AR-V7 degradation at 20 nM incubated for 6 hrs by Western blot analysis (reference value: 0%); format: cell-based
# [24] = test system: CWR22R; test: Downregulation of CCNB1IP1 gene expression in human 22Rv1 cells at 3 nM incubated for 24 hrs by Volcano plot analysis; format: functional, cell-based
# [25] = molecular target: T1, Protein cereblon/Androgen receptor; test: PROTAC activity at CRBN/AR in human VCaP cells assessed as induction of AR degradation incubated for 24 hrs by Western blot analysis; format: cell-based
# [26] = molecular target: T1, Protein cereblon/Androgen receptor; test: PROTAC activity at CRBN/AR in human 22Rv1 cells assessed as induction of AR degradation at 20 nM incubated for 6 hrs by Western blot analysis (reference value: 0 %); format: cell-based
# [27] = test system: Protein cereblon/Androgen receptor (Homo sapiens), P10275+Q96SW2 [UNDEFINED MUTATION]; test: Binding affinity to CRBN/AR-V7 in human 22Rv1 cells assessed as ternary complex formation incubated for 6 hrs by co-immunoprecipitation based Western blot analysis; format: cell-based
# [28] = test system: Protein cereblon/Androgen receptor (Homo sapiens), P10275+Q96SW2 [UNDEFINED MUTATION]; test: PROTAC activity at CRBN/Androgen receptor splice variant 7 in human VCaP cells assessed as induction of AR-V7 degradation by measuring maximal efficacy incubated for 24 hrs by Western blot analysis relative to control; format: cell-based
# [29] = test system: Protein cereblon/Androgen receptor (Homo sapiens), P10275+Q96SW2 [UNDEFINED MUTATION]; test: PROTAC activity at CRBN/Androgen receptor splice variant 7 in human 22Rv1 cells assessed as induction of AR-V7 degradation at 20 nM incubated for 12 hrs by Western blot analysis (reference value: 0%); format: cell-based
# [30] = test system: DU-145; test: Antiproliferative activity against AR-independent human DU-145 cells assessed as cell growth inhibition incubated for 72 hrs by Celltiter-lumi luminescent cell viability assay; format: functional, cell-based; conditions: DU-145, 72 h
# [31] = Cmax in male ICR mouse at 2 mg/kg, iv by LC-MS/MS analysis; format: ADME, organism-based; conditions: in vivo
# [32] = AUC in male ICR mouse at 10 mg/kg, po by LC-MS/MS analysis; format: ADME, organism-based; conditions: in vivo
compound,measurement,setting,value
COc1ccc(C(C)(C)c2cc(Cl)c(OCC3CCN(C(=O)CCCCCNc4ccc5c(c4)C(=O)N(C4CCC(=O)NC4=O)C5=O)CC3)c(C#N)c2)cc1 (centres undefined),Activity,[1],94.1%
same,Activity,[2],inactive
same,Activity,[3],Dose-dependent-effect
same,Activity,[4],92.1%
same,Activity,[5],Active
same,Activity,[6],Active
same,Activity,[7],98.6%
same,Activity,[8],inactive
same,Emax,[9],96.5%
same,Activity,[10],76.7%
same,Activity,[11],Active
same,Ratio IC50,[12],802
same,Activity,[13],Dose-dependent-effect
same,DC50,[13],0.0037 µM
same,Activity,[14],58.9%
same,Activity,[15],56.3%
same,Emax,[16],82.5%
same,IC50,[17],0.0623 µM
same,Activity,[18],75.2%
same,Activity,[19],Active
same,Emax,[20],90%
same,Activity,[21],55.6%
same,Activity,[22],inactive
same,Activity,[23],20.1%
same,Activity,[24],Active
same,Activity,[25],Dose-dependent-effect
same,DC50,[25],0.002 µM
same,Activity,[26],49.7%
same,Activity,[27],Active
same,Emax,[28],77.9%
same,Activity,[29],56.6%
same,IC50,[30],0.882 µM
same,Cmax,[31],1120 ng/mL
same,AUC,[32],1040 ng·h/mL
